Legend:
[1] = Free trans-resveratrol in beverages after adding trans-resveratrol powder, 10 micron filtered (HPLC/(+)ESI-MS/MS and HPLC/UV); assay type: physicochemical
From the text: All beverages receiving the powder are thoroughly mixed. […] A few milliliters of each beverage are transferred to amber-colored sample vials. Samples are stored from each beverage in a refrigerator for analysis.

[2] = Near-saturated concentration of resveratrol in ethanol; assay type: physicochemical; conditions: 25° C.
Method: To deliver a 25 mg dose, 0.60 mL of tincture is required regardless of volume of beverage.

| Compound | appearance on adding powder to beverage ([1]; 25 mg powder in a serving volume, all beverages) | amount of bioavailable (free) resveratrol ([1]; 25 mg powder in alcoholic beverages (red wine, white wine, beer, spirits), 10 micron filtered) | measurable concentrations of free trans-resveratrol ([1]; 25 mg powder in non-alcoholic beverages (energy drink, sodas, orange juice), 10 micron filtered) | concentration of concentrated (near-saturated) tincture [2] [µg/mL] |
| --- | --- | --- | --- | --- |
| Oc1ccc(/C=C/c2cc(O)cc(O)c2)cc1 [trans-resveratrol powder, trans-resveratrol] | appears to suspend in solution forming a cloudy layer | below the minimum detection limits of the devices | none of the non-alcoholic beverages (energy drink, sodas, and orange juice) receiving the powder show any measurable concentrations of trans-resveratrol | – |
| Oc1ccc(/C=C/c2cc(O)cc(O)c2)cc1 [resveratrol, trans-resveratrol] | – | – | – | 42000 |

Reference: patent US10071064B2, “Tincture for infusing flavonoids and methods of use” (Heart Healthy Spirits, LLC, priority 2014, dated 2018)
